Patent EP1514922A1 (priority 2003, dated 2005)

Experiments:
[1] = test system: chloride sensor (ECFP - peptide linker - EYFP with mutations I152L, V163S, H148Q; SEQ ID No. 5); test: Calibration of chloride sensor emission ratio R=F527/F485 in patch-pipette dialysed cells; type: cell-based; details: in HEK293 and BOSC23 cells; Rmax = 2,39, Rmin = 0,49
Procedure: The chloride sensor was expressed in human kidney derived cell lines (HEK293 and BOSC23) using a calcium phosphate transfection procedure.
Measurements of fluorescence are likely to reflect the average [Cl-] in the intracellular compartment.
The ratio (R) of fluorescence emission of the EYFP acceptor to that of the ECFP donor is R=F527/F485.
To calibrate the fluorescence of chloride sensor within these cells, R is measured while using a patch pipette to manipulate the cytoplasmic concentration of anions. A nominally Cl- free solution containing 150 mM gluconate is used to determine the maximal emission ratio for the chloride sensor (Rmax), whereas a solution containing a saturating concentration (150mM) of Cl- defines the minimal emission ratio (Rmin). The relationship between R and intermediates values of [Cl-] is then determined. This relationship could be described as : [Cl-]= K'd (Rmax - R)/(R - Rmin), [formula] with Rmax = 2,39, Rmin = 0,49 and K'd = 87mM. this calibration curve can then be used to convert R values measured in intracellular compartment of living cells into [Cl-].

[2] = target: YFP double mutant YFP-H148Q/V163S (Aequorea victoria, UniProt P42212, H148Q/H231L/S65G/S72A/T203Y/V163S/V68L); details: physiological pH (7,35); cited from earlier work
[3] = target: YFP double mutant YFP-H148Q/I152L (Aequorea victoria, UniProt P42212, H148Q/H231L/I152L/S65G/S72A/T203Y/V68L); details: cited from earlier work

Question: With chloride [Cl^-] as the substance, how does the Kd [1] read?
Answer: 87 mM

Question: What about the Kd [2] of the same substance?
Answer: 39 mM

Question: And the “binding kinetics (τ)” value [2]?
Answer: 1900 ms

Question: What about the Kd [3] of the same substance?
Answer: 85 mM

Question: And the “binding kinetics (τ)” value [3]?
Answer: 52 ms
